Measurements as given in article PMC8571282 (Nature Communications, 2021).
“And” between values parts separate entries of the source, which are not always exact repeats. Equal values may be shown once. Read-outs that look alike come from different tables or passages of the source.

How the values were obtained:
SARS-CoV-2 WA1/2020 = assay type: in vivo, ferret (Mustela putorius furo); conditions: for Transform of Nasal lavage titer, Mean Diff. (Vehicle vs. treated) / Transform of Nasal lavage titer, Mean 2 (treated group): Fig 3b; for Transform of Nasal lavage titer, Mean Diff. (Vehicle vs. treated) / Transform of Nasal lavage titer, Mean 2 (treated group) / Transform of Nasal Turbinate titer, Mean 2 (treated group) / Transform of Nasal Turbinate titer, Mean Diff. (Vehicle vs. treated): b.i.d.; for Transform of Nasal Turbinate titer, Mean 2 (treated group) / Transform of Nasal Turbinate titer, Mean Diff. (Vehicle vs. treated): Fig 3c; for Transform of Nasal Lavage RNA copies, Mean 2 (treated group) / Transform of Nasal Lavage RNA copies, Mean Diff. (Vehicle vs. treated): Fig 3f
in vitro [1] = conditions: African green monkey, % cell viability, 72 h
in vitro [2] = conditions: human
“F2” primary HAE cells = test: Cytotoxicity assay (PrestoBlue), “F2” HAE; conditions: 72 h; for % cell viability: F2 HAE
Throughout, for Transform of Nasal Lavage RNA copies, Mean 2 (treated group): unit not given here.
Throughout, for Transform of Nasal Lavage RNA copies, Mean Diff. (Vehicle vs. treated): unit not given here.
Throughout, for Transform of Nasal lavage titer, Mean 2 (treated group): unit not given here.
Throughout, for Transform of Nasal lavage titer, Mean Diff. (Vehicle vs. treated): unit not given here.

## CC(C)C(=O)OCC1OC(C#N)(c2ccc3c(N)ncnn23)C(OC(=O)C(C)C)C1OC(=O)C(C)C (stereo not drawn) [GS-621763]
SARS-CoV-2 WA1/2020; Day 1.5, 3 mg/kg
  Transform of Nasal lavage titer, Mean Diff. (Vehicle vs. treated): 1.236
SARS-CoV-2 WA1/2020; Day 1.5, 10 mg/kg
  Transform of Nasal lavage titer, Mean 2 (treated group): 2.277
  Transform of Nasal lavage titer, Mean Diff. (Vehicle vs. treated): 2.379
SARS-CoV-2 WA1/2020; Day 2, 3 mg/kg
  Transform of Nasal lavage titer, Mean 2 (treated group): 3.882
  Transform of Nasal lavage titer, Mean Diff. (Vehicle vs. treated): 0.3882
SARS-CoV-2 WA1/2020; Day 2, 10 mg/kg
  Transform of Nasal lavage titer, Mean 2 (treated group): 1.369
  Transform of Nasal lavage titer, Mean Diff. (Vehicle vs. treated): 2.901
SARS-CoV-2 WA1/2020; Day 2.5, 3 mg/kg
  Transform of Nasal lavage titer, Mean 2 (treated group): 3.714
  Transform of Nasal lavage titer, Mean Diff. (Vehicle vs. treated): 0.4855
SARS-CoV-2 WA1/2020; Day 2.5, 10 mg/kg
  Transform of Nasal lavage titer, Mean 2 (treated group): 1.314
  Transform of Nasal lavage titer, Mean Diff. (Vehicle vs. treated): 2.886
SARS-CoV-2 WA1/2020; Day 3, 3 mg/kg
  Transform of Nasal lavage titer, Mean 2 (treated group): 3.088
  Transform of Nasal lavage titer, Mean Diff. (Vehicle vs. treated): 0.713
SARS-CoV-2 WA1/2020; Day 3, 10 mg/kg
  Transform of Nasal lavage titer, Mean 2 (treated group): 0.8495
  Transform of Nasal lavage titer, Mean Diff. (Vehicle vs. treated): 2.952
SARS-CoV-2 WA1/2020; Day 3.5, 3 mg/kg
  Transform of Nasal lavage titer, Mean 2 (treated group): 3.452
  Transform of Nasal lavage titer, Mean Diff. (Vehicle vs. treated): 0.4247
SARS-CoV-2 WA1/2020; Day 3.5, 10 mg/kg
  Transform of Nasal lavage titer, Mean 2 (treated group): 1.758
  Transform of Nasal lavage titer, Mean Diff. (Vehicle vs. treated): 2.118
SARS-CoV-2 WA1/2020; Day 4, 3 mg/kg
  Transform of Nasal lavage titer, Mean 2 (treated group): 3.139
  Transform of Nasal lavage titer, Mean Diff. (Vehicle vs. treated): 0.849
SARS-CoV-2 WA1/2020; Day 4, 10 mg/kg
  Transform of Nasal lavage titer, Mean 2 (treated group): 1
  Transform of Nasal lavage titer, Mean Diff. (Vehicle vs. treated): 2.988
SARS-CoV-2 WA1/2020; 3 mg/kg
  Transform of Nasal Turbinate titer, Mean 2 (treated group): 4.557
  Transform of Nasal Turbinate titer, Mean Diff. (Vehicle vs. treated): 1.366
SARS-CoV-2 WA1/2020; 10 mg/kg
  Transform of Nasal Turbinate titer, Mean 2 (treated group): 3.042
  Transform of Nasal Turbinate titer, Mean Diff. (Vehicle vs. treated): 2.881
SARS-CoV-2 WA1/2020; Row 1 (time), 3mg/kg b.i.d.
  Transform of Nasal Lavage RNA copies, Mean 2 (treated group): 0
  Transform of Nasal Lavage RNA copies, Mean Diff. (Vehicle vs. treated): 0
SARS-CoV-2 WA1/2020; Row 1 (time), 10mg/kg b.i.d.
  Transform of Nasal Lavage RNA copies, Mean 2 (treated group): 0
  Transform of Nasal Lavage RNA copies, Mean Diff. (Vehicle vs. treated): 0
SARS-CoV-2 WA1/2020; Row 2 (time), 3mg/kg b.i.d.
  Transform of Nasal Lavage RNA copies, Mean 2 (treated group): 5.027
  Transform of Nasal Lavage RNA copies, Mean Diff. (Vehicle vs. treated): 0.585
SARS-CoV-2 WA1/2020; Row 2 (time), 10mg/kg b.i.d.
  Transform of Nasal Lavage RNA copies, Mean 2 (treated group): 4.315
  Transform of Nasal Lavage RNA copies, Mean Diff. (Vehicle vs. treated): 1.297
SARS-CoV-2 WA1/2020; Row 3 (time), 3mg/kg b.i.d.
  Transform of Nasal Lavage RNA copies, Mean 2 (treated group): 5.927
  Transform of Nasal Lavage RNA copies, Mean Diff. (Vehicle vs. treated): 0.2134
SARS-CoV-2 WA1/2020; Row 3 (time), 10mg/kg b.i.d.
  Transform of Nasal Lavage RNA copies, Mean 2 (treated group): 4.129
  Transform of Nasal Lavage RNA copies, Mean Diff. (Vehicle vs. treated): 2.012
SARS-CoV-2 WA1/2020; Row 4 (time), 3mg/kg b.i.d.
  Transform of Nasal Lavage RNA copies, Mean 2 (treated group): 5.77
  Transform of Nasal Lavage RNA copies, Mean Diff. (Vehicle vs. treated): -0.1446
SARS-CoV-2 WA1/2020; Row 4 (time), 10mg/kg b.i.d.
  Transform of Nasal Lavage RNA copies, Mean 2 (treated group): 3.777
  Transform of Nasal Lavage RNA copies, Mean Diff. (Vehicle vs. treated): 1.849
SARS-CoV-2 WA1/2020; Row 5 (time), 3mg/kg b.i.d.
  Transform of Nasal Lavage RNA copies, Mean 2 (treated group): 5.662
  Transform of Nasal Lavage RNA copies, Mean Diff. (Vehicle vs. treated): 0.07178
SARS-CoV-2 WA1/2020; Row 5 (time), 10mg/kg b.i.d.
  Transform of Nasal Lavage RNA copies, Mean 2 (treated group): 3.751
  Transform of Nasal Lavage RNA copies, Mean Diff. (Vehicle vs. treated): 1.983
SARS-CoV-2 WA1/2020; in vivo
  reduction of virus burden in the turbinates: one order of magnitude
  viral RNA copies in nasal lavages and turbinates vs vehicle: statistically significant mean reduction
  virus burden in the turbinates: approached the limit of detection
  virus load in nasal lavages vs vehicle: approximately one order of magnitude lower
  virus shedding in nasal lavages: near-detection level
In vitro [1]; VeroE6, 1.235 µM
  viability at 72 h, 1.235 µM: 87%
In vitro [1]; VeroE6, 3.704 µM
  viability at 72 h, 3.704 µM: 87%
In vitro [1]; VeroE6, 33.333 µM
  viability at 72 h, 33.333 µM: 101%
In vitro [2]; female, % cell viability
  viability at 72 h, 0.046 µM: 84%
  viability at 72 h, 3.704 µM: 120%
  viability at 72 h, […]: 95%
  viability at […]: 101%
In vitro [2]; female, % cell viability, DF2 HAE, 1.235 µM, 72 h
  viability at 1.235 µM: 103%
In vitro [2]; female, % cell viability, DF2 HAE, 3.704 µM, 72 h
  viability at 3.704 µM: 116%
In vitro [2]; female, % cell viability, DF2 HAE, 33.333 µM, 72 h
  viability at 33.333 µM: 112%
In vitro [2]
  CC50 at 72 h: 86 µM
In vitro [2]; % cell viability
  viability at 72 h, 100 µM: 4%
“F2” primary HAE cells; 0.046 µM
  % cell viability: 84% and 81%
“F2” primary HAE cells; 1.235 µM
  % cell viability: 109%
“F2” primary HAE cells; 3.704 µM
  % cell viability: 109%
“F2” primary HAE cells; 33.333 µM
  % cell viability: 87% and 80%
“F2” primary HAE cells; “F2” HAE
  CC50: 43.8 µM
